# Test results taken from paper PMC6130675 (Pharmaceutical Biology, 2017).
# Where two headings read alike, the source gives them in different places.
# Legend:
# HHV-2 E194 = test: Viral CPE inhibition assay (neutral red), HHV-2 E194 wild type; type: cell-based; details: for IC50: 96 h, HHV-2 E194 (WT), Vero-76 cells, neutral red, day 4 post-infection; for SI (Selectivity Index CC50/IC50): HHV-2 E194
# Text: (§1) Viral CPE inhibition assay to determine KPB-100 anti-HHV-2 TK-mutant activity: HHV-2 thymidine kinase mutant (TK-minus; TK-), CI-10161 was a patient isolate obtained on 11 November 1986 from Bruce Ronnie at Burrows Welcome. It was amplified one time in MA-104 cells. HHV-2 TK- CI-1253 (18 February 1991) was a patient isolate obtained on 05 February 1992 from Bruce Ronnie at the department of medicine at the University of British Colombia and amplified one time in Vero cells. HHV-2 (E194) was the standard wild-type E194 strain from the USU archives. KPB-100 was suspended in water (100 μg/mL). It was diluted 1/2 in minimum essential medium (MEM) solution, then diluted down further in half-log dilutions in MEM solution with 50 μg/mL gentamicin and 2% foetal bovine serum. Each dilution was added to 5 wells of a 96-well plate with an overnight monolayer of 80–100% confluent Vero-76 cells. Acyclovir and cidofovir were tested in parallel as controls. Three wells of each dilution were then infected with virus, and two wells remained uninfected as toxicity controls. The MOI was approximated 0.001 for CI-1253, 0.002 for CI-10161 and 0.017 for E194. When untreated virus control wells reached near complete cytopathic effect (CPE), which was day-four post-infection in each case, plates were stained with neutral red dye (which measures cell viability, thus can be used for quantifying the vitality of both virus-infected and uninfected, drug-treated cell cultures) for approximately 2 h, then supernatant dye was removed and the incorporated dye was extracted in 50:50 Sorensen citrate buffer/ethanol, then read on a spectrophotometer at 540 nm. Optical density (OD) values were normalized based on cell and virus controls, then IC50, 50% cytotoxic concentration (CC50) values, and Selectivity Index (SI) were calculated by regression analysis.
# HHV-2 TK- 1253 = test: Viral CPE inhibition assay (neutral red), HHV-2 TK- CI-1253; type: cell-based; details: for IC50: 96 h, HHV-2 TK- 1253, Vero-76 cells, neutral red, day 4 post-infection; for SI (Selectivity Index CC50/IC50): HHV-2 TK- 1253
# Text: as §1
# HHV-2 TK- 10161 = test: Viral CPE inhibition assay (neutral red), HHV-2 TK- CI-10161; type: cell-based; details: for IC50: 96 h, HHV-2 TK- 10161, Vero-76 cells, neutral red, day 4 post-infection; for SI (Selectivity Index CC50/IC50): HHV-2 TK- 10161
# Text: as §1
# [1] = Cytotoxicity in uninfected cultures (neutral red) run with the CPE inhibition assay; type: cell-based; details: African green monkey, uninfected Vero-76 cells, run in parallel with each virus, read-out: CC50 (50% cytotoxic concentration of compound in uninfected cultures)
# Text: as §1
# VACV (WR) = test: microbe, parasite or virus in culture; type: cell-based; details: Orthopoxvirus vaccinia, Vero 76, 72 h
# HHV-2 TK- = test: Viral CPE inhibition assay, HHV-2 TK- (mean of the two TK- isolates); type: cell-based
# Text: as §1
# [2] = test system: HHV-2, strain G (ATCC VR-734); test: Standard plaque reduction assay against HHV-2 WT; type: cell-based
# [3] = test system: VACV WR-GFP virus (VV.NP-S-EGFP); test: microbe, parasite or virus in culture; type: cell-based, Vaccinia virus; details: for IC50: HeLa, 24 h, read-out: IC50 virus spread inhibition
# VACV WR-GFP = type: cell-based, Vaccinia virus
# C1008 cells = test: Cytotoxicity measured by CPE in plaque reduction; details: 25 μg/mL
# HHV-1 (v2424) = test: HHV-1 virus yield reduction (VYR) assay; type: cell-based; details: Vero 76, read-out: IC90 (concentration reducing virus yield by 1 log10 or 90%)
# Vero-76 cells = details: African green monkey
# [4] = Vero 76, mean over TK- isolates 1253 and 10161, CPE inhibition, Vero-76 cells, read-out: mean IC50 against HHV-2 TK-
smiles,measurement,setting,value
"Nc1ccn(C[C@@H](CO)OCP(=O)(O)O)c(=O)n1 [Cidofovir, cidofovir]",IC50,HHV-2 E194,4.3 µg/mL
same,SI (Selectivity Index CC50/IC50),HHV-2 E194,>23
same,IC50,HHV-2 TK- 1253,0.22 µg/mL
same,SI (Selectivity Index CC50/IC50),HHV-2 TK- 1253,>450
same,IC50,HHV-2 TK- 10161,1.2 µg/mL
same,SI (Selectivity Index CC50/IC50),HHV-2 TK- 10161,>83
same,CC50 at 4 days,[1],> 100 µg/mL
same,IC50,VACV (WR),9.7 µg/mL
same,IC50,HHV-2 TK-; [4],0.71 µg/mL
"Nc1nc2c(ncn2COCCO)c(=O)[nH]1 [Acyclovir, acyclovir]",IC50,HHV-2 E194,0.49 µg/mL
same,SI (Selectivity Index CC50/IC50),HHV-2 E194,>204
same,IC50,HHV-2 TK- 1253,9.3 µg/mL
same,SI (Selectivity Index CC50/IC50),HHV-2 TK- 1253,>11
same,IC50,HHV-2 TK- 10161,15 µg/mL
same,SI (Selectivity Index CC50/IC50),HHV-2 TK- 10161,>6.7
same,CC50 at 4 days,[1],> 100 µg/mL
same,IC50,HHV-2 TK-; [4],12.2 µg/mL
COc1cc(O)cc(O[C@@H]2O[C@H](COC(=O)c3cc(OC)c(O)c(OC)c3)[C@@H](O)[C@H](O)[C@H]2O)c1 [KPB-200],IC50,[2],2.9 µg/mL
same,IC50,VACV (WR),7.4 µg/mL
same,IC50 virus spread inhibition,[3],13.19 µg/mL
same,IC50,[3]; Orthopoxvirus vaccinia,13.2 µg/mL
same,anti-VACV activity in virus yield inhibition assay (in words),VACV WR-GFP,exhibited anti-VACV activities
same,cytotoxicity (cytopathic effect),C1008 cells,< 20%
"COc1cc([C@@H]2c3cc(OC)c(OC)cc3C[C@H](CO)[C@H]2CO[C@@H]2OC[C@@H](O)[C@H](O)[C@H]2O)ccc1O [KPB-100, scaphopetalone]",IC50,[2],2.5 µg/mL
same,IC50,HHV-2 E194,5.4 µg/mL
same,SI (Selectivity Index CC50/IC50),HHV-2 E194,>4.6
same,IC50,HHV-2 TK- 1253,4.6 µg/mL
same,SI (Selectivity Index CC50/IC50),HHV-2 TK- 1253,>5.4
same,IC50,HHV-2 TK- 10161,4.5 µg/mL
same,SI (Selectivity Index CC50/IC50),HHV-2 TK- 10161,>5.6
same,CC50 at 4 days,[1],> 25 µg/mL
same,IC90,HHV-1 (v2424),3 µg/mL
same,IC50,VACV (WR),3.1 µg/mL
same,IC50,[3]; Orthopoxvirus vaccinia,1.63 µg/mL
same,inhibition at 4 µg/mL,"[3]; Orthopoxvirus vaccinia, 4 μg/mL, read-out: inhibition of virus spread",~100%
same,anti-VACV activity in virus yield inhibition assay (in words),VACV WR-GFP,exhibited anti-VACV activities
same,IC50,"HHV-2 TK-; Vero 76, read-out: mean IC50 against HHV-2 TK-, mean over TK- isolates 1253 and 10161, CPE inhibition, Vero-76 cells",4.5 µg/mL
same,mean IC50 against HHV-2 TK-,"HHV-2 TK-; mean over TK- isolates 1253 and 10161, CPE inhibition, Vero-76 cells",4.55 µg/mL
same,toxicity estimated visually,Vero-76 cells,20%
same,cytotoxicity (cytopathic effect),C1008 cells,< 20%
